Like-named read-outs stand apart in the source and are kept apart here.
Columns and labels:
PARP1 = settings: cited from earlier work; for maximum standardized uptake values (SUVmax): clinical PET
[1] = parameters: method as in PMID 27841728, PMID 27261505; settings: cited from earlier work
[2] = parameters: method as in PMID 27841728, PMID 28222073; settings: cited from earlier work
neuroblastoma = settings: cited from earlier work
[3] = parameters: method as in PMID 28408529; settings: cited from earlier work
NB-EBC1x tumor = test: Biodistribution, autoradiography and tumor dosimetry in NB-EBC1x tumor-bearing mice; format: in vivo, female SCID CB17 mice; settings: 1 hour
Experimental: At various time points mice were euthanized and tissues were harvested, weighed, and assayed for radioactivity by gamma counter. Decay corrected data presented as percent injected dose per gram of tissue (%ID/g). Human dosimetry was calculated using OLINDA/EXM software by fitting time activity curves for biodistribution data. Tissue autoradiography was performed by freezing excised tumors at 1 h postinjection of each respective treatment. One tumor was collected for each treatment group. Tumors were cryosectioned (Leica Cryotome) at a thickness of 20 µm. Each section was collected with a 200 µm gap and a total of three sections were collected for each tumor. Sections were then exposed to a phosphorfilm for 60 h and films were read on a Cyclone Plus phosphorimager (Perkin Elmer). Experimental conditions have been included in the Supplementary Methods.
Animal studies were performed in female mice due to the lack of sex-related differences for [^211At]PTT tolerability from initial dose response studies performed in female and male mice. Female mice were chosen due to their underlying behavior towards other study subjects that reduced nonstudy-related causes for decreased wellness. Pre-clinical efficacy studies were performed through “single mouse testing” to more closely recapitulate a clinical trial. […] Number size for treatment groups was determined by model tumor growth reproducibility, which was previously shown to have less than 5% normal variation with at least two animals. Statistical tests for tumor response and event-free survival (EFS) were performed as a grouped analysis that included all tumor models treated at each respective dose level (n = 2 per model per dose level). Statistical differences between treatment groups for tumor response was performed by paired-model T-test that compared reduction in tumor volume for the 36 MBq/kg dose level vs. 24 MBq/kg or 12 MBq/kg. Event free survival was measured by area over the curve method to quantify time to event, which was set as tumor growth exceeding 2 cm[3],[19]. Differences in EFS were tested across all treated models for each respective dose level, and against untreated controls, by paired-model ANOVA analysis. Associations of drug target expression and response were performed by linear regression analysis of EFS and PARP1 mRNA expression. Genetic signatures were visually presented as a function of EFS and no statistical tests were applied. Blood and marrow toxicity studies were performed with n = 5 sample sizes and powered to detect >20% differences between untreated controls and treated animals. Results were tested for significance by one-way ANOVA comparison from untreated controls. Marrow colony formation assays were performed in replicates of 2 for each mouse subject, dependent on marrow isolation, and all replicates are included in final analyses. Statistical analysis was performed by ordinary one-way ANOVA comparison between the mean of control and test groups. Biodistribution studies were performed with n = 3 mice per time-point. Human dosimetry was calculated using OLINDA/EXM v1.1 software by fitting time activity curves for biodistribution data in a healthy mouse model. Tumor dosimetry was calculated by OLINDA/EXM v1.1 by fitting time activity curves for NB-EBC1 tumors from biodistribution data. All statistical analyses were performed in GraphPad Prism version 9.3.1 unless indicated otherwise.

[4] = mice; cited from earlier work
[5] = in vitro; ref previously shown by the authors, no reference given; cited from earlier work

## O=C1NCCn2c(-c3ccc(OCC[18F])cc3)nc3cccc1c32 [[^18F]FTT, fluorine-18 Fluorthanatrace]
PARP1; adults
  estimated kidney dose: 0.018–0.027 mGy/MBq
PARP1; breast cancer
  maximum standardized uptake values (SUVmax): 4–7
PARP1; ovarian cancer patients, minimal wash-out
  time of rapid tumor uptake kinetics post injection: 60 to 180 min
PARP1; ovarian cancer
  maximum standardized uptake values (SUVmax): 2–9
[1]
  thyroid uptake: around 4 % ID/g
[2]
  hepatobiliary clearance, share of blood clearance: > 90%

## N=C(N)NCc1cccc([131I])c1 [[^131I]MIBG, iodine-131-metaiodobenzylguanidine]
neuroblastoma
  overall survival benefit: below 40%

## O=C([O-])CC[C@H](NC(=O)N[C@@H](CCCCNC(=O)[C@H](Cc1ccc2ccccc2c1)NC(=O)C1CCC(CNC(=O)CN2CCN(CC(=O)[O-])CCN(CC(=O)[O-])CCN(CC(=O)[O-])CC2)CC1)C(=O)[O-])C(=O)[O-].[225Ac].[H+].[H+].[H+] (stereo partly shown) [[^225Ac]PSMA-617]
[3]
  kidney dose: 740 mSv/MBq

## [211At] [free astatine-211, astatine-211, reference compound]
NB-EBC1x tumor; 2-way ANOVA p value 0.0088
  tumor uptake compared to [^211At]PTT: lower uptake in tumor
NB-EBC1x tumor; 2-way ANOVA p-value 0.0004
  thyroid uptake compared to [^211At]PTT: significantly higher uptake in thyroid
[4]
  MTD for a single dose: greater than 50 MBq/kg
[5]
  potency relative to [211At]PTT in vitro: < 100 times

## CNCc1ccc(-c2[nH]c3cc(F)cc4c3c2CCNC4=O)cc1 [rucaparib]
[2]
  hepatobiliary clearance, share of blood clearance: > 90%
